# Assay results reported in patent publication US5045566A, “Novel imidate insecticides” (ICI Americas Inc., priority 1989, dated 1991).
# What was measured:
# Format in all cases: in vivo
# [1] = test system: Aster Leafhopper [Macrosteles fascifrens (Stal)]; experiment: Aster leafhopper on dipped oat seedlings (LH), 48 hours; conditions: percent in solution, adults/nymphs
# Outline: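 Three ~10 cm oat seedlings per cup were dipped 2-3 seconds in 50-50 acetone-water compound solutions, dried, and caged with ten adult/nymph leafhoppers. Mortality was counted after 48 hours at concentrations from 0.05% downward. LC50, as percent compound in solution, came from dosage-mortality curves.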
# [2] = test system: Tobacco Budworm [Heliothis virescens (Fabricius)] eggs; experiment: Tobacco budworm eggs (TBW-E); conditions: percent in solution; 2-day old eggs
# Outline: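 LC50 values (percent test compound in the dip solution) were calculated from dosage-mortality curves. Egg patches, 2 days old, were dipped in acetone solutions at concentrations from 0.1% downward and held at 78° F on rearing medium until control larvae hatched and fed.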
# [3] = test system: Black Bean Aphid [Aphis fabae (Scop.)]; experiment: Black bean aphid spray test on nasturtium (BBA), 48 hours; conditions: percent of test compound in sprayed solution
# Outline: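 LC50, given as percent test compound in the sprayed liquid, was calculated from dosage-mortality curves using concentrations from 0.05% downward. Sprays in 50:50 acetone-water went to runoff on ~5 cm nasturtiums carrying 25-50 aphids of mixed ages, one day after infestation. Deaths were counted 48 h later under greenhouse conditions.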
# [4] = test system: Cabbage Looper [Trichoplusia ni (Hubner)]; experiment: Cabbage looper leaf dip (CL), 3-5 days; conditions: percent in solution, second-instar larvae
# Outline: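 Leaf dip, squash cotyledons, 50-50 acetone-water, top dose 0.1% and lower. 5 second-instar larvae/dish, moist filter paper, high-humidity chamber. Mortality at 3-5 d; LC50 (% in solution) from dosage-mortality curves.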
# [5] = test system: Rice water weevil [Lissorhoptrus oryzophilus (Kuschel)]; experiment: Rice water weevil topical (RWW), 48 hours; conditions: μg of test compound per weevil, female adults
# Protocol: The compounds in Tables 1 and 2 above were tested for insecticidal activity using the following testing procedures. LC50 values, based on the results of these tests and calculated according to dosage-mortality curves, are expressed in Table 3.
# Rice water weevil [Lissorhoptrus oryzophilus (Kuschel)]:
# Test compounds were diluted in acetone. Droplets (1 ul) of test solutions were applied to the ventral abdomens of ten female adult weevils. The treated weevils were placed in containers with wet cotton balls and rice foliage. The containers were covered and kept at a temperature of about 25° C. Mortality was recorded after 48 hours. Test concentrations ranged from […] down to that at which 50% mortality occurred. The LC50 values are expressed below in Table 3 under the heading "RWW" in terms of μg of test compound per weevil.
# [6] = test system: Maize weevil [Sitophilus zeamais (Motschulsky)]; experiment: Maize weevil on dipped corn seeds (MW), 48 hours; conditions: percent in solution, adult weevils
# Outline: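 LC50, given as percent of compound in dipping solution, comes from dosage-mortality curves over concentrations descending from 0.01%. Four corn seeds soaked 2-3 s in 50:50 acetone:water solution were dried and held with 10 adult weevils, about 25° C, mortality read after 48 h.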
# [7] = test system: Housefly [Musca domestica]; experiment: Housefly contact mortality in dishes (HF), 48 hours; conditions: μg of test compound per 25 female flies
# Outline: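 Residual contact test: acetone dilution, 0.01% peanut oil spreader, solvent evaporated; 25 ♀ flies (1-2 d old) per cage; sugar-water plug; 48 h mortality read. LC50 in μg/25 female flies, from dose-mortality curves; top dose 100 μg/25 flies.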
# [8] = test system: Tobacco Budworm [Heliothis virescens (Fabricius)] larvae; experiment: Tobacco budworm larvae, contact (TBW-C), 5 days; conditions: percent in solution, second-instar larvae
# Outline: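 Cotton cotyledons dipped 2–3 s in compound in 50-50 acetone-water, dried, then infested with 5 second-instar larvae and held 5 days at high humidity. Mortality scored; LC50 from dosage-mortality curves, expressed as percent compound in solution, concentrations from 0.1% downward.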
SMILES,LC50 LH [1],LC50 TBW E (eggs) [2],LC50 BBA [3],LC50 CL [4],LC50 RWW [5],LC50 MW [6],LC50 HF [7],LC50 TBW C (contact) [8]
CC(C)C(=Nc1ccc(C(F)(F)F)cc1)OCc1cccc(Oc2ccccc2)c1 [Compound 68],0.0001%,0.009%,0.0003%,0.006%,0.15 µg,> 0.01%,37 µg,
CCC(=Nc1ccc(F)c(Cl)c1)OCc1cccc(Oc2ccccc2)c1 [Compound 85],0.003%,> 0.1%,0.0017%,0.004%,> 2.5 µg,> 0.01%,7 µg,
CC(C)C(=Nc1ccc(F)c(Cl)c1)OCc1cccc(Oc2cccc(F)c2)c1 [Compound 125],> 0.05%,0.025%,0.05%,0.0007%,> 2.5 µg,> 0.01%,12 µg,
CC(C)C(=Nc1ccc(F)c(Cl)c1)OCc1cccc(Oc2ccc(F)cc2F)c1 [Compound 191],> 0.05%,0.04%,0.001%,0.00023%,> 2.5 µg,0.004%,29 µg,
CC(C)C(=Nc1c(F)c(F)c(F)c(F)c1F)OCc1cccc(Oc2ccc(F)cc2)c1 [Compound 198],0.05%,> 0.1%,,0.0005%,> 2.5 µg,0.003%,52 µg,
CC(C)C(=Nc1ccc(F)c(Cl)c1)OCc1cccc(Oc2ccc(F)cc2)c1F [Compound 262],,> 0.1%,0.03%,0.0004%,> 2.5 µg,0.005%,26 µg,
CC(C)C(=Nc1ccc(Cl)c(Cl)c1)OCc1ccc(F)c(Oc2ccc(F)cc2)c1 [Compound 289],0.0003%,0.006%,0.0003%,0.00007%,0.082 µg,> 0.01%,10 µg,
CC(C)C(=Nc1ccc(Cl)c(Cl)c1)OCc1ccc(F)c(Oc2ccc(Cl)cc2)c1 [Compound 296],0.0003%,0.025%,0.0003%,0.00025%,0.14 µg,,38 µg,0.00045%
CC(C)C(=Nc1ccc(F)c(Br)c1)OCc1ccc(F)c(Oc2ccc(Cl)cc2)c1 [Compound 298],0.0001%,0.015%,,0.0001%,> 2.5 µg,0.008%,13 µg,0.0008%
CC(C)C(=Nc1ccc(OC(F)(F)F)cc1)OCc1ccc(F)c(Oc2ccccc2)c1 [Compound 338],,0.01%,0.0003%,0.000065%,0.044 µg,0.0053%,26 µg,0.00037%
CCOc1ccc(N=C(OCc2ccc(F)c(Oc3ccc(Cl)cc3)c2)C(C)C)cc1Cl [Compound 369],,> 0.1%,0.0003%,0.0016%,> 2.5 µg,> 0.01%,> 100 µg,
CCOc1ccc(N=C(OCc2ccc(F)c(Oc3ccccc3)c2)C(C)C)cc1Cl [Compound 370],,0.02%,0.0002%,0.00034%,> 2.5 µg,> 0.01%,< 100 µg,
CC(C)C(=Nc1cccc(F)c1)OCc1ccc(F)c(Oc2ccc(Cl)cc2)c1 [Compound 375],,0.04%,0.0006%,> 0.1%,> 2.5 µg,> 0.01%,7.9 µg,
CC(C)C(=Nc1ccc(Cl)c(Cl)c1)OCc1ccc(F)c(Oc2ccccc2)c1 [Compound 376],,0.02%,0.0003%,0.00037%,0.1 µg,0.0061%,17 µg,
CC(C)C(=Nc1ccc(C(F)(F)F)c(Br)c1)OCc1ccc(F)c(Oc2ccc(Cl)cc2)c1 [Compound 377],,> 0.1%,0.001%,0.00062%,> 2.5 µg,> 0.01%,< 100 µg,
CC(C)C(=Nc1ccc(Br)cc1)OCc1ccc(F)c(Oc2ccc(Cl)cc2)c1 [Compound 378],,0.02%,0.0008%,0.00034%,> 2.5 µg,> 0.01%,< 100 µg,
CC(C)C(=Nc1ccc(Br)c(Cl)c1)OCc1cccc(Oc2ccc(Cl)cc2)c1 [Compound 380],,> 0.1%,0.004%,> 0.1%,> 2.5 µg,> 0.01%,> 100 µg,
CC(C)C(=Nc1ccc(Br)c(Cl)c1)OCc1ccc(F)c(Oc2ccc(Cl)cc2)c1 [Compound 381],,0.018%,0.002%,0.00092%,> 2.5 µg,> 0.01%,< 100 µg,
CC(C)C(=Nc1ccc(Br)c(Cl)c1)OCc1ccc(F)c(Oc2ccc(F)cc2)c1 [Compound 382],,0.027%,0.0003%,0.00029%,> 2.5 µg,> 0.01%,< 100 µg,
CC(C)C(=Nc1cccc(Br)c1)OCc1ccc(F)c(Oc2ccccc2)c1 [Compound 387],,0.05%,0.0006%,0.0012%,> 2.5 µg,> 0.01%,< 100 µg,
CC(C)C(=Nc1ccc(Cl)cc1)OCc1ccc(F)c(Oc2ccc(Cl)cc2)c1 [Compound 391],,0.035%,0.0006%,0.00029%,> 2.5 µg,> 0.01%,< 100 µg,
C=C(C)C(=Nc1ccc(C(F)(F)F)cc1)OCc1ccc(F)c(Oc2ccccc2)c1 [Compound 431],,0.025%,0.0003%,0.00017%,0.084 µg,0.0037%,9.8 µg,
CC(C)C(=Nc1ccc(C(F)(F)F)c(Br)c1)OCc1ccc(F)c(Oc2ccc(Cl)cc2)c1 [Compound 433],,0.02%,0.0003%,0.00017%,0.078 µg,0.005%,< 100 µg,
CC(C)C(=Nc1ccc(Cl)c(OCC(F)(F)F)c1)OCc1ccc(F)c(Oc2ccc(Cl)cc2)c1 [Compound 452],,< 0.1%,0.0003%,0.0017%,0.1 µg,> 0.01%,> 100 µg,
